Test results: PMC3784064, “A phase I/II study of carfilzomib 2–10-min infusion in patients with advanced solid tumors” (Cancer Chemotherapy and Pharmacology, 2013)
Where two headings read alike, the source gives them in different places.

What was measured:
[1] = system: patients with advanced solid tumors; assay: Safety: adverse events graded by NCI CTCAE v3.0; assay type: in vivo
Excerpt: (§1) The phase I dose-escalation portion of the study followed the standard 3 + 3 design. Patients were enrolled at two sites in sequential cohorts of 3–6 patients each to establish the MTD. The MTD was defined as the highest dose up to the MPD at which […] of six patients experienced treatment-related dose-limiting toxicities (DLT) during the first cycle. DLTs were defined as treatment-related ≥grade 2 neuropathy with pain, ≥grade 3 non-hematologic toxicity, grade 4 neutropenia or thrombocytopenia lasting 7 or more days, or thrombocytopenia with bleeding. Toxicity was graded according to NCI CTCAE v3.0 [19].
(§2) All patients who received at least one dose of study treatment were evaluable for the safety analysis. After the initiation of carfilzomib, adverse events (AEs) were evaluated at each visit. Patients completed a comprehensive neurologic evaluation and radiographic assessment of tumor burden using computerized tomography (CT) at baseline and every 8 weeks for the first 24 weeks, then every 12 weeks thereafter or at treatment discontinuation. Patients who received at least one cycle of treatment and had both baseline and post-baseline disease assessments were evaluable for efficacy. Treatment response was assessed according to RECIST 1.0 [18]. Patients with stable disease (SD) or an objective response (CR or PR) after two cycles continued treatment until disease progression or unacceptable toxicity.

[2] = system: patients with advanced solid tumors; assay: Phase I dose escalation (3 + 3): DLT and MTD determination; assay type: in vivo
Method: Carfilzomib (Onyx Pharmaceuticals, Inc, South San Francisco, CA) was administered by intravenous infusion over 2–10 min on days 1, 2, 8, 9, 15, and 16 of a 28-day cycle. For the phase I dose-escalation portion, the starting dose in all cohorts for days 1 and 2 of cycle 1 was 20 mg/m^2, based on the tolerated dose identified in hematologic malignancies. On all remaining cycle 1 dosing days (days 8, 9, 15, and 16) and in all subsequent cycles, carfilzomib was administered at a dose of 20 mg/m^2 in cohort 1 (20/20 mg/m^2), 27 mg/m^2 in cohort 2 (20/27 mg/m^2), and 36 mg/m^2 in cohort 3 (20/36 mg/m^2). Stepped-up dosing in cycle 1 and dexamethasone premedication were adopted to abrogate fever, chills and/or rigors, and dyspnea, all of which were […] observed during initial therapy in MM trials. Dexamethasone 4 mg (intravenous or oral) was administered prior to each carfilzomib dose for the first cycle and during subsequent cycles when indicated. Upon completion of 12 treatment cycles, patients had the option of enrolling in an open-label extension study, PX-171-010 (NCT00884312).
as §1

[3] = system: proteasome chymotrypsin-like (CT-L) activity in whole blood and PBMCs; assay: Pharmacodynamics: proteasome CT-L activity, fluorogenic LLVY-AMC substrate assay; assay type: in vivo, human; details: for Median proteasome inhibition / proteasome inhibition, range: day 1 of cycle 2
Method: Whole blood was collected on day 1 of the first two cycles prior to and 1 h after infusion for measurement of proteasome activity in whole blood and peripheral blood mononuclear cells (PBMCs). CT-L activity was assessed using a fluorogenic substrate assay with succinyl–Leu–Leu–Val–Tyr–AMC (LLVY) as previously described.

advanced solid tumors = assay: Antitumor activity, treatment response by RECIST 1.0; assay type: in vivo, human
Method: The primary objective of the phase I dose-escalation portion of the study was to determine the maximum tolerated dose (MTD) of carfilzomib up to a maximum planned dose (MPD) of 20/36 mg/m^2. The primary objective of the expansion (various tumor types) and phase II tumor-specific portions was to determine the disease control rate [DCR = complete response (CR) + partial response (PR) + stable disease (SD)] as defined by RECIST 1.0 [18] after four cycles of treatment at the MTD or MPD. Secondary objectives included pharmacokinetics (PK) and pharmacodynamics (PDn) of carfilzomib.
Once dose escalation was completed, an additional 11 evaluable patients with assorted tumor types could enroll in the expansion cohort to receive carfilzomib at the MTD/MPD. In the phase II tumor-specific portion of the study, cohorts of patients with NSCLC, SCLC, ovarian cancer, and renal cancer were to be treated at the MTD/MPD utilizing a Simon two-stage design. Tumor types included in the phase II tumor-specific cohorts were selected based on efficacy results from the phase I dose-escalation portion and preclinical data.
as §2
Continuous and categorical data were summarized with descriptive statistics or frequencies and percentages, respectively. For the phase II tumor-specific portion, the Simon two-stage sample size calculation applied a null hypothesis objective response rate (ORR = CR + PR) of 2 % and an alternative hypothesis ORR of 15 %, with the type I error at 5 % and a power of 0.8. For stage 1, 11 evaluable patients were to be enrolled in each of the four solid tumor cohorts. […] Because there were multiple study sites, over enrollment was permitted.

[4] = human, in vivo, 20 mg/m2
Method: (§3) Serial blood samples were collected on days 1 and 16 of cycle 1 and day 16 of cycle 2 as follows: predose, immediately post-dose, and then at 5, 15, and 30 min, and 1, 2, and 4 h post-dose. Plasma samples for PK studies were assayed using validated liquid chromatography/mass spectrometry with a lower limit of detection of 0.10 ng/ml [17].
(§4) Pharmacokinetic parameters were estimated by non-compartmental analysis using WinNonlin Enterprise Version 5.2 (Pharsight Inc., Mountain View, CA).

[5] = system: human solid tumor xenograft model; design: method as in PMID 17616698; details: consecutive-day dosing; cited from earlier work
solid tumor cell lines = system: solid tumor cell lines; design: method as in PMID 17616698; details: 1-h pulse, replicating clinical pharmacokinetics; cited from earlier work
proteasome in PBMCs = system: proteasome in PBMCs; design: method as in PMID 22761464; details: 20/27 mg/m^2, patients with hematologic malignancies; cited from earlier work
clinical = details: human, in vivo
Method: as §3, §4

patients with MM = details: human, in vivo, iv; cited from earlier work
[6] = 20 mg/m^2, one hour after administration
[7] = 27 mg/m^2, one hour after administration
[8] = 36 mg/m^2, one hour after administration

CC(C)C[C@H](NC(=O)[C@H](CCc1ccccc1)NC(=O)CN1CCOCC1)C(=O)N[C@@H](Cc1ccccc1)C(=O)N[C@@H](CC(C)C)C(=O)[C@@]1(C)CO1 [carfilzomib]
AE: fatigue ([1]; human, in vivo): 35.7% | AE: headache ([1]; human, in vivo): 42.9% | AE: hypokalemia ([1]; human, in vivo): 35.7% | patients who discontinued due to AEs ([1]; human, in vivo): 14.3% | patients who discontinued due to an AE ([1]; human, in vivo): 10.8% | patients who missed at least one carfilzomib dose due to AEs ([1]; human, in vivo): 29.2% | patients with carfilzomib dose reduced due to AEs of elevated blood creatinine/decreased CrCl ([1]; human, in vivo): 12.3% | carfilzomib dose reduced due to AEs ([1]; in vivo): No patients | deaths considered related to carfilzomib ([1]; on study or within 30 days of ending treatment): No deaths | MPD recommended for the expansion and phase II tumor-specific portions ([2]; human, in vivo, iv, 28 days): 20/36 | dose-limiting toxicities (DLT) ([2]; in vivo): no DLTs | maximum tolerated dose (MTD) ([2]; phase I dose-escalation portion, up to the MPD of 20/36 mg/m^2): No MTD was identified | Median proteasome inhibition [3, 6]: 83.4% | proteasome inhibition, range [3, 6]: 82.9–85.5% | Median proteasome inhibition [3, 7]: 91.6% | proteasome inhibition, range [3, 7]: 79.0–93.2% | Median proteasome inhibition [3, 8]: 88.6% | proteasome inhibition, range [3, 8]: 54.7–99.4% | recovery of proteasome activity by the start of the second cycle ([3]; PBMCs): there was recovery | recovery of constitutive proteasome activity between cycles ([3]; whole blood): Minimal recovery | inhibition of proteasome CT-L activity ([3]; whole blood and PBMCs, one hour after administration on day 1 of cycle 2, all doses): at least 80% | PD as best response (advanced solid tumors; expansion and phase II patients, 29/51, 20/36 mg/m^2): 56.9% | patients with SD for 6 months or longer (advanced solid tumors; expansion and phase II tumor-specific cohorts, 20/36 mg/m^2): four | patients with SD after two cycles (advanced solid tumors; expansion and phase II tumor-specific cohorts, 22 of 51 evaluable patients, 20/36 mg/m^2): 43.1% | PR or better (advanced solid tumors; expansion and phase II tumor-specific cohorts, 51 evaluable patients, 20/36 mg/m^2, after four cycles or over the study period): No patients | reduction in tumor burden (advanced solid tumors; one patient with renal cancer, 20/36 mg/m^2, after five cycles): > 80% | progressive disease (PD) (advanced solid tumors; phase I dose-escalation portion, 12 evaluable patients): eight | confirmed partial response (PR) (advanced solid tumors; phase I dose-escalation portion, 20/36 mg/m^2, 12 evaluable patients): two | AUClast [4]: 269 ± 61.7 ng·h/mL | CL [4]: 136 ± 52.8 L/h | Cmax [4]: 3410 ± 51.5 ng/mL | antitumor activity compared with bortezomib or carfilzomib dosed on days 1 and 4 [5]: more effective antitumor activity | potency at killing solid tumor cell lines compared with bortezomib (solid tumor cell lines): more potent than bortezomib | proteasome inhibition (proteasome in PBMCs): > 90% | AUC(0-t) (clinical; 20 mg/m2, AUClast): 251 ± 92 ng·h/mL | clearance (clinical; 20 mg/m2, CL): 4380 mL/min | Cmax (clinical; 20 mg/m2, Cmax): 2390 ± 104 ng/mL | AUC(0-t) (clinical; 27 mg/m2, AUClast): 379 ± 24.8 ng·h/mL | clearance (clinical; 27 mg/m2, CL): 2500 mL/min | Cmax (clinical; 27 mg/m2, Cmax): 4230 ± 48.8 ng/mL | Vd (clinical; 27 mg/m2, V ss): 11.1 ± 4.45 L | half-life (clinical; 27 mg/m2, t 1/2): 21 min | AUC(0-t) (clinical; 36 mg/m2, AUClast): 594 ± 52.5 ng·h/mL | clearance (clinical; 36 mg/m2, CL): 1930 mL/min | Cmax (clinical; 36 mg/m2, Cmax): 5718 ± 46.5 ng/mL | Vd (clinical; 36 mg/m2, V ss): 9.33 ± 4.8 L | half-life (clinical; 36 mg/m2, t 1/2): 52.2 min | half-life (clinical; iv, half-life): < 60 min | tolerable dose (patients with MM): 20/27
